The text below walks through data of patent US20240245649A1, “Method and Composition for Mimicking Caloric Restriction by Administration of Ergothioneine” (NANJING NUTRABUILDING BIO-TECH CO., LTD., priority 2021, published 2024).

The subject of series [1] is AKT and phospho-AKT (Ser473). The series is described as follows: AKT and phospho-AKT (Ser473) protein levels in skeletal muscle after insulin stimulation, immunoblotting. It is filed as in vivo, mice. The method, then:
(§1) Mice group were named after the diet they consumed. Group A mice was fed ad libitum (control), and group B mice was on high-fat diet (HFD), Group C was fed restricted amount of the HFD diet to achieve caloric restriction (HFD+CR), and Group D was fed high-fat diet and supplemented with Ergothioneine (HFD+EGT), the concentration of Ergothioneine is 3.25 mg/kg. All groups of mice were housed individually, and fed for months of interventions and had free access to water. Health status was monitored during the intervention. At the end of each intervention, body composition, insulin sensitivity, blood glucose level, different blood parameters and lifespan of the mice were studied. After treatment, blood is taken to measure high-density lipoprotein (HDL), low-density lipoprotein (LDL) and HOmeostasis Model Assessment-Insulin Resistance (HOMA-IR). The HOMA-IR index was calculated using the following formula: HOMA-IR=[fasting glucose levels (mmol/L)]×[fasting serum insulin (mU/L)]/22.5. At the end of the experiment, AKT and phospho-AKT (Ser473) protein levels in skeletal muscle after 2 IU/kg insulin stimulation for 15 min were determined by immunoblotting (n=3-6). The concentrations of inflammatory cytokines including tumor necrosis factor-α (TNF-α) and interleukin (IL)-6, and oxidative stress markers including malonaldehyde (MDA) and superoxide dismutase (SOD) were detected by ELISA kits.

The test system of series [2] is malonaldehyde (MDA) and superoxide dismutase (SOD). The series is described as follows: Oxidative stress markers MDA and SOD by ELISA kits in high-fat diet mice. It is filed as in vivo. On the procedure: as §1
A general note: ELISA stands for enzyme-linked immunosorbent assay.

Series [3] has as its system tumor necrosis factor-α (TNF-α) and interleukin (IL)-6. The series is described as follows: Inflammatory cytokines TNF-α and IL-6 by ELISA kits in high-fat diet mice. It is filed as in vivo. The method, then: as §1
In series [4] the test system is high-fat diet (HFD) mice. Description: Blood LDL and HDL in high-fat diet mice supplemented with Ergothioneine. Format: in vivo. The method, then:
as §1

Series [5] concerns high-fat diet (HFD) mice. Description: HOMA-IR (fasting glucose x fasting serum insulin /22.5) in high-fat diet mice. Format: in vivo. On the procedure: as §1
The conditions of series [6]: animals and humans, even at high doses; cited from earlier work.

Regarding `C[N+](C)(C)[C@@H](Cc1c[nH]c(=S)[nH]1)C(=O)[O-]` [Ergothioneine], in series [1] (broadest of the nested bounds printed (0.25, 0.35, 0.40, 0.45, 0.53, 0.60)), the “p-AKT/AKT increased by Ergothioneine to” value is on record as no less than 0.25. The “insulin-stimulated AKT phosphorylation (p-AKT)/AKT relative protein expression” value in series [1] (skeletal muscle, 2 IU/kg insulin for 15 min, HFD+EGT vs HFD group, FIG. 4) is recorded as “higher than HFD group”. In addition, in series [2] (EGT compared with HFD group, FIG. 7), the MDA expression entry is listed as “reduction of MDA expression”. Moreover, the SOD expression result in series [2] (EGT compared with HFD group, FIG. 8) is “elevation of SOD expression”. Further, the “level of MDA decreased by Ergothioneine to” value in series [2] (broadest of the nested bounds printed (15, 13, 12, 11, 10, 8)) is no more than 15 nmol/mL. Further, the “level of SOD increased by Ergothioneine to” value in series [2] (broadest of the nested bounds printed (45, 48, 50, 51, 52, 55)) is listed as no less than 45 U/mL. For the same compound, the “content of TNF-α” value in series [3] (HFD+EGT group compared with HFD group, FIG. 5) is recorded as “remarkably decreased”. Also, the “content of IL-6” value in series [3] (HFD+EGT group compared with HFD group, FIG. 6) is “remarkably decreased”. Moreover, the “level of IL-6 decreased by Ergothioneine to” value in series [3] (broadest of the nested bounds printed (38, 35, 30, 28, 26, 22)) is no more than 38 pg/mL. For the same compound, in series [3] (broadest of the nested bounds printed (40, 38, 35, 32, 30, 28, 26)), the “level of TNF-α decreased by Ergothioneine to” value is on record as no more than 40 pg/mL. In addition, the “level of LDL” value with high-fat diet (HFD) mice [4] (HFD+EGT (Group D), Ergothioneine 3.25 mg/kg, vs HFD group, FIG. 1) is “significantly decreased”. Further, the “level of HDL” value in the series with high-fat diet (HFD) mice [4] (HFD+EGT (Group D), Ergothioneine 3.25 mg/kg, vs HFD group, FIG. 2) is “significantly increased”. Further, in the series on high-fat diet (HFD) mice [4] (broadest of the nested bounds printed (24, 22, 20, 18, 15)), the “LDL level decreased by Ergothioneine to” value is recorded as no more than 24 mg/dL. For the same compound, the “HDL level increased by Ergothioneine to” value in the series with high-fat diet (HFD) mice [4] (broadest of the nested bounds printed (40, 42, 44, 46, 48, 50)) is given as no less than 40 mg/dL. Besides, the HOMA-IR result in the series on high-fat diet (HFD) mice [5] (HFD+EGT group vs HFD group, FIG. 3) is listed as “lower HOMA-IR than HFD group”. The “HOMA-IR decreased by Ergothioneine to” value with high-fat diet (HFD) mice [5] (broadest of the nested bounds printed (28, 26, 24, 22, 20, 15)) was no more than 28. In addition, the “toxicity or adverse effects associated with administration” value in series [6] was “no toxicity or adverse effects”.
